Patent US9278958B2, “Anti-cancer compounds” (KATHOLIEKE UNIVERSITEIT LEUVEN, priority 2012, dated 2016)
Like-named read-outs stand apart in the source and are kept apart here.

Columns and labels:
CEM cells = test: Cytostatic assay, CEM; assay type: cell-based; conditions: for Ratio (tumor cell selectivity): ratio IC50 HeLa / IC50 CEM
Protocol: (§1) To each well of a 96-well microtiter plate were added 5-7.5×10^4 cells and a given amount of the test compound. The cells were allowed to proliferate for 48 h to 96 h (depending on the nature of the cell line) at 37° C. in a humidified CO2-controlled atmosphere. At the end of the incubation period, the cells were counted in a Coulter Counter (Coulter Electronics Ltd, Harpenden Herts, United Kingdom).

[1] = tested on: HeLa cervix carcinoma cells; test: Cytostatic assay, HeLa; assay type: cell-based, human
Protocol: as §1

[2] = Homo sapiens, CCRF-CEM, Table 1a, read-out: IC50 μM (CEM)
[3] = Homo sapiens, CCRF-CEM, CEM cells, Table 7, 5-arylthiomethyl-substituted 2-amino-3-carboxymethylthiophenes, read-out: IC50 (μM) CEM
[4] = Homo sapiens, HeLa cells, Table 7, 5-arylthiomethyl-substituted 2-amino-3-carboxymethylthiophenes, read-out: IC50 (μM) HeLa
[5] = Homo sapiens, CCRF-CEM, Table 1b, read-out: IC50 (μM) (CEM)
[6] = Homo sapiens, Table 1b, read-out: IC50 (μM) (HeLa)
[7] = Table 1b, read-out: IC50 (μM) (CEM)
[8] = Table 1b, read-out: IC50 (μM) (HeLa)
[9] = CEM cells, Table 7, 5-arylthiomethyl-substituted 2-amino-3-carboxymethylthiophenes, read-out: IC50 (μM) CEM
[10] = HeLa cells, Table 7, 5-arylthiomethyl-substituted 2-amino-3-carboxymethylthiophenes, read-out: IC50 (μM) HeLa
[11] = Homo sapiens, CCRF-CEM, CEM cells, Table 6, 5-alkyl-substituted 2-aminothiophenes, read-out: IC50 (μM) CEM
[12] = Homo sapiens, HeLa cells, Table 6, 5-alkyl-substituted 2-aminothiophenes, read-out: IC50 (μM) HeLa

Molecule	IC50 (CEM cells; [3]) [µM]	IC50 [1, 4] [µM]	Ratio (tumor cell selectivity) (CEM cells; Table 7)	other results
COC(=O)c1cc(CCc2ccc(OC)cc2)sc1N(C)C [TJ6B, Methyl 2-dimethylamino-5-(2-(4-methoxyphenyl)ethyl)thiophene-3-carboxylate]				IC50 (CEM cells; [2]): 18 µM
COC(=O)c1ccccc1SCc1cc(C(=O)OC)c(N)s1 [Compound D7, Methyl 2-amino-5-((2-(methoxycarbonyl)phenylthio)methyl)thiophene-3-carboxylate]	27	190	7	
COC(=O)c1cc(CSc2ccc(OC)cc2)sc1N1C(=O)c2ccccc2C1=O [TJ21, Methyl 2-phthalimido-5-(2-(4-methoxyphenyl)sulfanylmethyl)thiophene-3-carboxylate]				IC50 (CEM cells; [7]): 4.9 ± 1.4 µM; IC50 [1, 8]: 112 ± 2 µM
CNC(=O)c1cc(CCc2ccc(OC)cc2)sc1N [TJ19, N-Methyl 2-amino-5-(2-(4-methoxyphenyl)ethyl)thiophene-3-carboxamide]				IC50 (CEM cells; [2]): 31 µM
COC(=O)c1cc(CSc2ccc(OC)cc2)sc1N [TJ22, Methyl 2-amino-5-(2-(4-methoxyphenyl)sulfanylmethyl)thiophene-3-carboxylate]			93	IC50 (CEM cells; [9]): 0.62 µM; IC50 (CEM cells; [7]): 0.62 ± 0.33 µM; IC50 [1, 10]: 58 µM; IC50 [1, 8]: 58 ± 1 µM
COC(=O)c1cc(CSc2ccc(Cl)cc2)sc1N [Compound D4, Methyl 2-amino-5-((4-chlorophenylthio)methyl)thiophene-3-carboxylate]	1.7	42	25	
COC(=O)c1cc(CSc2ccc(F)cc2)sc1N [Compound D10, Methyl 2-amino-5-((4-fluorophenylthio)methyl)thiophene-3-carboxylate]	3.1	102	33	
COC(=O)c1cc(COc2ccc(OC)cc2)sc1N [TJ25, Methyl 2-amino-5-(2-(4-methoxyphenyl)oxymethyl)thiophene-3-carboxylate]				IC50 (CEM cells; [7]): 43 ± 13 µM; IC50 [1, 8]: 68 ± 13 µM
COC(=O)c1cc(CSCc2ccc(OC)cc2)sc1N1C(=O)c2ccccc2C1=O [TJ127, Methyl 2-phthalimido-5-(2-(4-methoxybenzyl)sulfanylmethyl)thiophene-3-carboxylate]				IC50 (CEM cells; [7]): 25 ± 8 µM; IC50 [1, 8]: 111 ± 20 µM
COC(=O)c1cc(CNc2ccc(OC)cc2)sc1N [TJ51, Methyl 2-amino-5-(2-(4-methoxyphenyl)aminomethyl)thiophene-3-carboxylate]				IC50 (CEM cells; [7]): 96 ± 16 µM; IC50 [1, 8]: 78 ± 15 µM
CNc1sc(CCc2ccc(OC)cc2)cc1C(=O)OC [TJ6A, Methyl 2-methylamino-5-(2-(4-methoxyphenyl)ethyl)thiophene-3-carboxylate]				IC50 (CEM cells; [2]): 23 µM
COc1ccc(CCc2cc(C(N)=O)c(N)s2)cc1 [TJ9, 2-Amino-5-(2-(4-methoxyphenyl)ethyl)thiophene-3-carboxamide]				IC50 (CEM cells; [2]): 39 µM
COC(=O)c1cc(CSc2ccccc2OC)sc1N [Compound D6, Methyl 2-amino-5-((2-methoxyphenylthio)methyl)thiophene-3-carboxylate]	17	94	6	
COC(=O)c1cc(CSc2cccc(C(=O)O)c2)sc1N [TJ53, 3-((5-amino-4-(methoxycarbonyl)thiophen-2-yl)methylthio)benzoic acid]	124	75	≦1	
COC(=O)c1cc(CSc2ccc(C)cc2)sc1N [TJ55, Methyl 2-amino-5-((4-methylphenylthio)methyl)thiophene-3-carboxylate]	1.5	72	48	IC50 (CEM cells; [5]): 1.5 ± 0.3 µM; IC50 [1, 6]: 72 ± 30 µM
CCCc1cc(C(=O)OC)c(N)s1 [TJ190, Methyl 2-amino-5-propylthiophene-3-carboxylate]				IC50 (CEM cells; [11]): 6.9 µM; Ratio (tumor cell selectivity) (CEM cells; Table 6): 9; IC50 [1, 12]: 61 µM
COC(=O)c1cc(Cc2ccccc2)sc1N [TJ109, Methyl 2-amino-5-benzylthiophene-3-carboxylate]				IC50 (CEM cells; [2]): 8.4 µM
COC(=O)c1cc(CCCCl)sc1N [TJ168D, Methyl 2-amino-5-(3-chloropropyl)thiophene-3-carboxylate]				IC50 (CEM cells; [11]): 26 µM; Ratio (tumor cell selectivity) (CEM cells; Table 6): 6; IC50 [1, 12]: 150 µM
COC(=O)c1csc(CCc2ccc(OC)cc2)c1 [TJ7, Methyl 5-(2-(4-methoxyphenyl)ethyl)thiophene-3-carboxylate]				IC50 (CEM cells; [2]): 87 µM
2-Amino-5-(2-(4-methoxyphenyl)ethyl)thiophene-3-carboxylate [TJ8]				IC50 (CEM cells; Table 1a, read-out: IC50 μM (CEM)): 31 µM
COC(=O)c1cc(CSCc2ccccc2)sc1N [TJ57, Methyl 2-amino-5-(2-(phenyl)methylsulfanylmethyl)thiophene-3-carboxylate]			17	IC50 (CEM cells; [9]): 3.5 µM; IC50 (CEM cells; [7]): 3.5 ± 1.1 µM; IC50 [1, 10]: 61 µM; IC50 [1, 8]: 61 ± 38 µM
COC(=O)c1cc(CSC2CCCCC2)sc1N [Compound D8, Methyl 2-amino-5-(cyclohexylthiomethyl)thiophene-3-carboxylate]	2.1	81	39	
CCCCSCc1cc(C(=O)OC)c(N2C(=O)c3ccccc3C2=O)s1 [TJ119, Methyl 2-phthalimido-5-(2-(butyl)sulfanylmethyl)thiophene-3-carboxylate]				IC50 (CEM cells; Table 1c, read-out: IC50 (μM) CEM): 6.6 ± 3.2 µM; IC50 ([1]; Table 1c, read-out: IC50 (μM) HeLa): 104 ± 1 µM
COC(=O)c1cc(CSc2ccccc2)sc1N1C(=O)c2ccccc2C1=O [TJ86, Methyl 2-phthalimido-5-(2-(phenyl)sulfanylmethyl)thiophene-3-carboxylate]				IC50 (CEM cells; [7]): 13 ± 7 µM; IC50 [1, 8]: 184 ± 6 µM

More lines, main results first:

IC50 (CEM cells; [3]) [µM]	IC50 [1, 4] [µM]	Molecule	Ratio (tumor cell selectivity) (CEM cells; Table 7)	other results
3.3	99	COC(=O)c1cc(CSCc2cccs2)sc1N [TJ118, Methyl 2-amino-5-((thiophen-2-ylmethylthio)methyl)thiophene-3-carboxylate]	30	IC50 (CEM cells; [5]): 3.3 ± 0.9 µM; IC50 [1, 6]: 99 ± 5 µM
0.9	74	COC(=O)c1cc(CSc2ccc3ccccc3c2)sc1N [TJ113, Methyl 2-amino-5-((naphthalen-2-ylthio)methyl)thiophene-3-carboxylate]	82	IC50 (CEM cells; [5]): 0.9 ± 0.04 µM; IC50 [1, 6]: 74 ± 6 µM
39	46	COC(=O)c1cc(CSc2ccccc2N)sc1N [TJ122, Methyl 2-amino-5-((2-aminophenylthio)methyl)thiophene-3-carboxylate]	1	
4.9	102	COC(=O)c1cc(CSCc2ccco2)sc1N [TJ117, Methyl 2-amino-5-((furan-2-ylmethylthio)methyl)thiophene-3-carboxylate]	21	IC50 (CEM cells; [5]): 4.9 ± 0.1 µM; IC50 [1, 6]: 102 ± 6 µM
0.57	55	COC(=O)c1cc(CCCSC2CCCCC2)sc1N [TJ170, Methyl 2-amino-5-(3-(cyclohexylthio)propyl)thiophene-3-carboxylate]	96	
12	16	COC(=O)c1cc(CSc2ccc([N+](=O)[O-])cc2)sc1N [TJ126, Methyl 2-amino-5-((4-nitrophenylthio)methyl)thiophene-3-carboxylate]	1	
0.34	49	CCc1ccc(SCc2cc(C(=O)OC)c(N)s2)cc1 [TJ185, Methyl 2-amino-5-((4-ethylphenylthio)methyl)thiophene-3-carboxylate]	144	
